The supplement of paper PMC10307832

How the values were obtained:
Assay in all cases: relative viability (nuclei count vs DMSO), 5 days (fraction); higher = more cells survive
[1] = test system: SW 900
Method in brief: (§1)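 Cells from lung cancer lines were seeded into 1536-well plates and, one day later, dosed by pin tool. Treatments were either a single drug or a fixed dose of an anchor drug with five library-drug doses (not always all listed) in √10 steps. After 5 days, nuclei were stained in a one-step fixation (final 0.05% Triton X-100, 1% formaldehyde, 1 ug/ml Hoechst) and counted on 4× images, and relative viability is the treated-to-vehicle nuclei ratio, as the median of duplicate plates.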

[2] = test system: NCI-H2023
Method in brief: as §1

[3] = test system: NCI-H647
Method in brief: as §1

[4] = test system: NCI-H2405
Method in brief: as §1

[5] = test system: PC-14
Method in brief: as §1

[6] = test system: NCI-H1734
Method in brief: as §1

[7] = test system: NCI-H2347
Method in brief: as §1

[8] = test system: EPLC-272H
Method in brief: as §1

[9] = test system: 201T
Method in brief: as §1

[10] = test system: COR-L23
Method in brief: as §1

[11] = test system: NCI-H2170
Method in brief: as §1

[12] = test system: UMC-11
Method in brief: as §1

[13] = test system: NCI-H1793
Method in brief: as §1

[14] = test system: NCI-H3122
Method in brief: as §1

[15] = test system: HCC-15
Method in brief: as §1

[16] = test system: NCI-H520
Method in brief: as §1

[17] = test system: NCI-H322M
Method in brief: as §1

[18] = test system: LOU-NH91
Method in brief: as §1

[19] = test system: NCI-H1650
Method in brief: as §1

[20] = test system: H3255
Method in brief: as §1

[21] = test system: NCI-H441
Method in brief: as §1

Compound: COc1cc2nccc(Oc3ccc(NC(=O)Nc4cc(C)on4)c(Cl)c3)c2cc1OC [Tivozanib] + CC(=O)Nc1cccc(-n2c(=O)n(C3CC3)c(=O)c3c(Nc4ccc(I)cc4F)n(C)c(=O)c(C)c32)c1 [Trametinib] (partner 0.02 µM)
- relative viability ([1]; first compound 0.005 µM): 0.692
- relative viability ([1]; first compound 0.01581 µM): 1.18
- relative viability ([1]; first compound 0.05 µM): 1.04
- relative viability ([1]; first compound 0.5 µM): 0.829
- relative viability ([2]; first compound 0.005 µM): 0.526
- relative viability ([2]; first compound 0.01581 µM): 0.603
- relative viability ([2]; first compound 0.05 µM): 0.606
- relative viability ([2]; first compound 0.1581 µM): 0.61
- relative viability ([2]; first compound 0.5 µM): 0.498
- relative viability ([3]; first compound 0.005 µM): 0.521
- relative viability ([3]; first compound 0.01581 µM): 0.461
- relative viability ([3]; first compound 0.05 µM): 0.483
- relative viability ([3]; first compound 0.1581 µM): 0.408
- relative viability ([3]; first compound 0.5 µM): 0.49
- relative viability ([4]; first compound 0.005 µM): 0.543
- relative viability ([4]; first compound 0.01581 µM): 0.664
- relative viability ([4]; first compound 0.05 µM): 0.607
- relative viability ([4]; first compound 0.1581 µM): 0.499
- relative viability ([4]; first compound 0.5 µM): 0.554
- relative viability ([5]; first compound 0.005 µM): 0.654
- relative viability ([5]; first compound 0.01581 µM): 0.766
- relative viability ([5]; first compound 0.05 µM): 0.844
- relative viability ([5]; first compound 0.1581 µM): 0.84
- relative viability ([5]; first compound 0.5 µM): 0.751
- relative viability ([6]; first compound 0.005 µM): 0.645
- relative viability ([6]; first compound 0.01581 µM): 0.642
- relative viability ([6]; first compound 0.05 µM): 0.666
- relative viability ([6]; first compound 0.1581 µM): 0.479
- relative viability ([6]; first compound 0.5 µM): 0.638
- relative viability ([7]; first compound 0.005 µM): 0.311
- relative viability ([7]; first compound 0.01581 µM): 0.27
- relative viability ([7]; first compound 0.05 µM): 0.294
- relative viability ([7]; first compound 0.1581 µM): 0.317
- relative viability ([7]; first compound 0.5 µM): 0.284
- relative viability ([8]; first compound 0.005 µM): 0.243
- relative viability ([8]; first compound 0.01581 µM): 0.277
- relative viability ([8]; first compound 0.05 µM): 0.27
- relative viability ([8]; first compound 0.1581 µM): 0.235
- relative viability ([8]; first compound 0.5 µM): 0.246
- relative viability ([9]; first compound 0.005 µM): 0.691
- relative viability ([9]; first compound 0.01581 µM): 0.759
- relative viability ([9]; first compound 0.05 µM): 0.681
- relative viability ([9]; first compound 0.1581 µM): 0.717
- relative viability ([9]; first compound 0.5 µM): 0.784
- relative viability ([10]; first compound 0.005 µM): 0.542
- relative viability ([10]; first compound 0.01581 µM): 0.577
- relative viability ([10]; first compound 0.05 µM): 0.588
- relative viability ([10]; first compound 0.1581 µM): 0.421
- relative viability ([10]; first compound 0.5 µM): 0.545
- relative viability ([11]; first compound 0.005 µM): 0.827
- relative viability ([11]; first compound 0.01581 µM): 0.92
- relative viability ([11]; first compound 0.05 µM): 0.893
- relative viability ([11]; first compound 0.5 µM): 0.983
- relative viability ([12]; first compound 0.005 µM): 0.66
- relative viability ([12]; first compound 0.01581 µM): 0.67
- relative viability ([12]; first compound 0.05 µM): 0.754
- relative viability ([12]; first compound 0.1581 µM): 0.533
- relative viability ([12]; first compound 0.5 µM): 0.529
- relative viability ([13]; first compound 0.005 µM): 0.305
- relative viability ([13]; first compound 0.01581 µM): 0.457
- relative viability ([13]; first compound 0.05 µM): 0.471
- relative viability ([13]; first compound 0.5 µM): 0.445
- relative viability ([14]; first compound 0.005 µM): 0.197
- relative viability ([14]; first compound 0.01581 µM): 0.213
- relative viability ([14]; first compound 0.05 µM): 0.229
- relative viability ([14]; first compound 0.1581 µM): 0.235
- relative viability ([14]; first compound 0.5 µM): 0.321
- relative viability ([15]; first compound 0.005 µM): 0.391
- relative viability ([15]; first compound 0.01581 µM): 0.365
- relative viability ([15]; first compound 0.05 µM): 0.364
- relative viability ([15]; first compound 0.1581 µM): 0.422
- relative viability ([15]; first compound 0.5 µM): 0.395
- relative viability ([16]; first compound 0.005 µM): 0.658
- relative viability ([16]; first compound 0.01581 µM): 0.771
- relative viability ([16]; first compound 0.05 µM): 0.612
- relative viability ([16]; first compound 0.1581 µM): 0.475
- relative viability ([16]; first compound 0.5 µM): 0.646
- relative viability ([17]; first compound 0.005 µM): 0.509
- relative viability ([17]; first compound 0.01581 µM): 0.602
- relative viability ([17]; first compound 0.05 µM): 0.55
- relative viability ([17]; first compound 0.1581 µM): 0.517
- relative viability ([17]; first compound 0.5 µM): 0.577
- relative viability ([18]; first compound 0.005 µM): 0.736
- relative viability ([18]; first compound 0.01581 µM): 0.805
- relative viability ([18]; first compound 0.05 µM): 0.784
- relative viability ([18]; first compound 0.1581 µM): 0.744
- relative viability ([18]; first compound 0.5 µM): 0.767
- relative viability ([19]; first compound 0.005 µM): 0.592
- relative viability ([19]; first compound 0.01581 µM): 0.582
- relative viability ([19]; first compound 0.05 µM): 0.584
- relative viability ([19]; first compound 0.1581 µM): 0.545
- relative viability ([19]; first compound 0.5 µM): 0.547
- relative viability ([20]; first compound 0.005 µM): 0.531
- relative viability ([20]; first compound 0.01581 µM): 0.61
- relative viability ([20]; first compound 0.05 µM): 0.659
- relative viability ([20]; first compound 0.1581 µM): 0.608
- relative viability ([20]; first compound 0.5 µM): 0.59
- relative viability ([21]; first compound 0.005 µM): 0.405
- relative viability ([21]; first compound 0.01581 µM): 0.489
- relative viability ([21]; first compound 0.05 µM): 0.551
- relative viability ([21]; first compound 0.1581 µM): 0.367
- relative viability ([21]; first compound 0.5 µM): 0.433
